Measurements as given in the supplement of paper PMC11451515.

What was measured:
NOMO1 [1] = test: cell viability relative to DMSO control; higher = less cytotoxic; details: 48 h
Method in brief: (§1)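 Library compounds in DMSO were pin-dosed into 1536-well plates (5 μl) holding NOMO1 or SEM (500 cells/well) or P12-Ichikawa (1000 cells/well) leukemia cells, across an 11-point threefold series of 47 μM to 0.79 nM. Each cell line had been adapted for at least four passages in each medium. CellTiter-Glo One luminescence was read after 48 h at 37°C. Viability is the per-plate percentage relative to DMSO wells, with cell-free wells as background.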

SEM cells [2] = test: as above; details: 48 h
Method in brief: as §1

NOMO1 [3] = test: AUC of viability dose-response curve (% viability x log10 dose units); higher = less sensitive; details: 48 h
Method in brief: (§2)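 Leukemia cells adapted to each medium were seeded at 500 or 1000 cells/well in 1536-well plates and dosed with library compounds in DMSO at 11 threefold doses from 47 μM to 0.79 nM for 48 h at 37°C. CellTiter-Glo One luminescence was normalised per plate to DMSO and cell-free wells, then fitted with a four-parameter log-logistic model over log10 doses. Area under the curve was taken from this fit by the trapezoidal rule, with curves above full viability scaled and curves failing quality control removed.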

P12-Ichikawa [4] = test: as above; details: 48 h
Method in brief: as §2

SEM cells [5] = test: as above; details: 48 h
Method in brief: as §2

P12-Ichikawa [6] = test: cell viability relative to DMSO control; higher = less cytotoxic; details: HPLM + 10% dialyzed FBS, 48 h
Method in brief: as §1

CCN(CC)CCOc1ccc(/C(=C(\Cl)c2ccccc2)c2ccccc2)cc1
cell viability [%]
Details | HPLM + 10% dialyzed FBS | RPMI 5 mM glucose + 10% FBS | RPMI 5 mM glucose + 10% dialyzed FBS
NOMO1 [1], 0.000781 µM | 124 | – | –
NOMO1 [1], 0.00234 µM | 123 | – | –
NOMO1 [1], 0.00702 µM | 130 | – | –
NOMO1 [1], 0.0211 µM | 136 | – | –
NOMO1 [1], 0.0632 µM | 150 | – | –
NOMO1 [1], 0.19 µM | 134 | – | –
NOMO1 [1], 0.569 µM | 130 | – | –
NOMO1 [1], 1.71 µM | 134 | – | –
NOMO1 [1], 5.12 µM | 109 | – | –
NOMO1 [1], 15.4 µM | 122 | – | –
NOMO1 [1], 46.1 µM | 102 | – | –
SEM cells [2], 0.000781 µM | 111 | 90 | 104
SEM cells [2], 0.00234 µM | 118 | 94.7 | 124
SEM cells [2], 0.00702 µM | 128 | 115 | 125
SEM cells [2], 0.0211 µM | 114 | 116 | 127
SEM cells [2], 0.0632 µM | 118 | 118 | 142
SEM cells [2], 0.19 µM | 116 | 128 | 144
SEM cells [2], 0.569 µM | 134 | 124 | 127
SEM cells [2], 1.71 µM | 125 | 116 | 126
SEM cells [2], 5.12 µM | 129 | 108 | 123
SEM cells [2], 15.4 µM | 112 | 116 | 126
SEM cells [2], 46.1 µM | 101 | 91.6 | 118

AUC of viability dose-response curve
Details | NOMO1 [3] | P12-Ichikawa [4] | SEM cells [5]
HPLM + 10% dialyzed FBS | 458 | 466 | 470
RPMI 5 mM glucose + 10% FBS | 471 | 469 | 462
RPMI 5 mM glucose + 10% dialyzed FBS | 473 | 456 | 470

COc1ccc2cc([C@H](C)C(=O)O)ccc2c1
AUC of viability dose-response curve
Details | NOMO1 [3] | P12-Ichikawa [4] | SEM cells [5]
HPLM + 10% dialyzed FBS | 465 | 448 | 412
RPMI 5 mM glucose + 10% FBS | 476 | 469 | 401
RPMI 5 mM glucose + 10% dialyzed FBS | 460 | 464 | 410

O=c1[nH]c2ccccc2n1CCCN1CCC(n2c(=O)[nH]c3cc(Cl)ccc32)CC1
NOMO1 [1], RPMI 5 mM glucose + 10% FBS
Details | cell viability [%]
0.000781 µM | 124
0.00234 µM | 146
0.00702 µM | 123
0.0211 µM | 134
0.0632 µM | 151
0.19 µM | 149
0.569 µM | 137
1.71 µM | 116
5.12 µM | 131
15.4 µM | 146
46.1 µM | 122

AUC of viability dose-response curve
Details | NOMO1 [3] | P12-Ichikawa [4] | SEM cells [5]
HPLM + 10% dialyzed FBS | 459 | 467 | 448
RPMI 5 mM glucose + 10% FBS | 466 | 460 | 473
RPMI 5 mM glucose + 10% dialyzed FBS | 472 | 470 | 475

COCCOc1ccc2c(c1)ncn2-c1ccc2cccc(N3CCC(N)CC3)c2n1
cell viability [%], SEM cells [2]
Details | HPLM + 10% dialyzed FBS | RPMI 5 mM glucose + 10% FBS | RPMI 5 mM glucose + 10% dialyzed FBS
0.000781 µM | 83.8 | 99.7 | 112
0.00234 µM | 77.9 | 115 | 101
0.00702 µM | 70.3 | 109 | 72.2
0.0211 µM | 59.8 | 67.6 | 65.2
0.0632 µM | 52.5 | 58.7 | 51.3
0.19 µM | 51.6 | 47.8 | 46.1
0.569 µM | 46.6 | 50.9 | 44.6
1.71 µM | 42.5 | 44.1 | 41.8
5.12 µM | 21.7 | 25.8 | 23.7
15.4 µM | 12.8 | 12.3 | 13.1
46.1 µM | 4.13 | 3.44 | 3.97

AUC of viability dose-response curve
Details | HPLM + 10% dialyzed FBS | RPMI 5 mM glucose + 10% FBS | RPMI 5 mM glucose + 10% dialyzed FBS
NOMO1 [3] | 394 | 418 | 405
P12-Ichikawa [4] | 377 | 405 | 394

CCC[C@H](NC(=O)[C@@H]1[C@H]2CCC[C@H]2CN1C(=O)[C@@H](NC(=O)[C@@H](NC(=O)c1cnccn1)C1CCCCC1)C(C)(C)C)C(=O)C(=O)NC1CC1
SEM cells [2], HPLM + 10% dialyzed FBS
Details | cell viability [%]
0.000781 µM | 106
0.00234 µM | 99.8
0.00702 µM | 106
0.0211 µM | 106
0.0632 µM | 111
0.19 µM | 118
0.569 µM | 118
1.71 µM | 119
5.12 µM | 127
15.4 µM | 111
46.1 µM | 116

AUC of viability dose-response curve
Details | NOMO1 [3] | P12-Ichikawa [4] | SEM cells [5]
HPLM + 10% dialyzed FBS | 461 | 474 | 454
RPMI 5 mM glucose + 10% FBS | 474 | 473 | 469
RPMI 5 mM glucose + 10% dialyzed FBS | 472 | 476 | 470

C1=C/COCc2cc(ccc2OCCN2CCCC2)Nc2nccc(n2)-c2cccc(c2)OCC/1
NOMO1 [1], HPLM + 10% dialyzed FBS
Details | cell viability [%]
0.000781 µM | 20.8
0.00234 µM | 84.8
0.00702 µM | 123
0.0211 µM | 133
0.0632 µM | 161
0.19 µM | 130
0.569 µM | 124
1.71 µM | 94.7
5.12 µM | 63.2
15.4 µM | 7.96
46.1 µM | 5.7

AUC of viability dose-response curve
Details | HPLM + 10% dialyzed FBS | RPMI 5 mM glucose + 10% FBS | RPMI 5 mM glucose + 10% dialyzed FBS
P12-Ichikawa [4] | 409 | 415 | 406
SEM cells [5] | 354 | 369 | 350

NC/1=N/C(=O)C2=C(N1)[N](C=N2)[C@@H]3C[C@H](O)[C@@H](CO)C3=C
AUC of viability dose-response curve
Details | NOMO1 [3] | P12-Ichikawa [4] | SEM cells [5]
HPLM + 10% dialyzed FBS | 385 | 351 | 248
RPMI 5 mM glucose + 10% FBS | 423 | 342 | 272
RPMI 5 mM glucose + 10% dialyzed FBS | 378 | 331 | 200

COC(c1ccccc1)(c1ccccc1)[C@H](Oc1nc(C)cc(C)n1)C(=O)O
SEM cells [2], RPMI 5 mM glucose + 10% dialyzed FBS
Details | cell viability [%]
0.000781 µM | 115
0.00234 µM | 134
0.00702 µM | 122
0.0211 µM | 139
0.0632 µM | 177
0.19 µM | 160
0.569 µM | 167
1.71 µM | 152
5.12 µM | 140
15.4 µM | 133
46.1 µM | 85.1

AUC of viability dose-response curve
Details | NOMO1 [3] | P12-Ichikawa [4] | SEM cells [5]
HPLM + 10% dialyzed FBS | 444 | 464 | 462
RPMI 5 mM glucose + 10% FBS | 452 | 465 | 466
RPMI 5 mM glucose + 10% dialyzed FBS | 467 | 464 | 463

CC(C)CNc1ccnc(NCc2csc(-c3ccccc3)n2)n1
Details | AUC of viability dose-response curve | cell viability [%]
NOMO1 [3], HPLM + 10% dialyzed FBS | 414 | –
NOMO1 [3], RPMI 5 mM glucose + 10% FBS | 456 | –
NOMO1 [3], RPMI 5 mM glucose + 10% dialyzed FBS | 446 | –
P12-Ichikawa [4], HPLM + 10% dialyzed FBS | 440 | –
P12-Ichikawa [4], RPMI 5 mM glucose + 10% FBS | 436 | –
P12-Ichikawa [4], RPMI 5 mM glucose + 10% dialyzed FBS | 442 | –
P12-Ichikawa [6], 0.000781 µM | – | 110
P12-Ichikawa [6], 0.00234 µM | – | 123
P12-Ichikawa [6], 0.00702 µM | – | 128
P12-Ichikawa [6], 0.0211 µM | – | 132
P12-Ichikawa [6], 0.0632 µM | – | 130
P12-Ichikawa [6], 0.19 µM | – | 132
P12-Ichikawa [6], 0.569 µM | – | 127
P12-Ichikawa [6], 1.71 µM | – | 115
P12-Ichikawa [6], 5.12 µM | – | 101
P12-Ichikawa [6], 15.4 µM | – | 96.3
P12-Ichikawa [6], 46.1 µM | – | 63.6
SEM cells [5], HPLM + 10% dialyzed FBS | 447 | –
SEM cells [5], RPMI 5 mM glucose + 10% FBS | 447 | –
SEM cells [5], RPMI 5 mM glucose + 10% dialyzed FBS | 458 | –

cell viability [%], SEM cells [2]
Details | HPLM + 10% dialyzed FBS | RPMI 5 mM glucose + 10% FBS
0.000781 µM | 88.4 | 110
0.00234 µM | 107 | 110
0.00702 µM | 104 | 127
0.0211 µM | 100 | 113
0.0632 µM | 121 | 138
0.19 µM | 113 | 145
0.569 µM | 107 | 142
1.71 µM | 120 | 138
5.12 µM | 108 | 113
15.4 µM | 64.2 | 88.9
46.1 µM | 61.1 | 68.2
